From patent US20220305137A1, “DRUG CONTAINING TARGETING LIPOSOMES” (NEXTAR CHEMPHARMA SOLUTIONS LTD., priority 2019, published 2022)

Assay: Doxorubicin brain concentration after intravenous administration, LC-MS/MS
Details: mice, 7.5 mg/kg intravenous
Method: A study was performed to determine doxorubicin distribution after administration, when comparing three doxorubicin-containing compositions, each administered to a group of 10 male ICR mice aged 7 weeks. Composition 1 was free doxorubicin.
Animals were administered doxorubicin in the following amount per administration, for each of the three compositions. Composition 1, was administered in HEPES solution at a dose of 7.5 mg/kg, in a volume of 100 microliter (μl) via the intravenous route. Compositions 2 and 3 were each administered at a dose of 15 mg/kg (equivalent of doxorubicin) in a volume of 300 μl via the intravenous route.
Five mice in each group were sacrificed one hour post administration, and five mice four hours post administration, and doxorubicin brain concentrations were determined using an LC-MS/MS method.

Structure (SMILES): COc1cccc2c1C(=O)c1c(O)c3c(c(O)c1C2=O)C[C@@](O)(C(=O)CO)C[C@@H]3O[C@H]1C[C@H](N)[C@H](O)[C@H](C)O1 [Composition 1, doxorubicin]
- doxorubicin brain concentration (60 minutes post administration): low brain concentration
- doxorubicin brain concentration (240 minutes post administration): low brain concentration
